Measurements as given in ChEMBL document CHEMBL3870316, “Design, synthesis and structure-activity relationships of novel 4-phenoxyquinoline derivatives containing 1,2,4-triazolone moiety as c-Met kinase inhibitors” (Eur J Med Chem, 2016).

What was measured:
[1] = species: Homo sapiens; experiment: Selectivity ratio of IC50 for VEGFR2 (unknown origin) to IC50 for c-MET (unknown origin)
[2] = Potency index, ratio of foretinib IC50 to compound IC50 for human H460 cells; assay type: functional
[3] = molecular target: Mast/stem cell growth factor receptor Kit (Homo sapiens, UniProt P10721); experiment: Inhibition of c-Kit (unknown origin) after 30 mins by HTRF assay
[4] = Cytotoxicity against c-Met over-expressed human HT-29 cells assessed as cell growth inhibition after 72 hrs by MTT assay; conditions: HT-29, 72 h
[5] = molecular target: Macrophage-stimulating protein receptor (Homo sapiens, UniProt Q04912); experiment: Inhibition of Ron (unknown origin) after 30 mins by HTRF assay
[6] = molecular target: T1, Receptor-type tyrosine-protein kinase FLT3 (Homo sapiens, UniProt P36888); experiment: Inhibition of FLT3 (unknown origin) after 30 mins by HTRF assay
T1 sequence (P36888 whole entry): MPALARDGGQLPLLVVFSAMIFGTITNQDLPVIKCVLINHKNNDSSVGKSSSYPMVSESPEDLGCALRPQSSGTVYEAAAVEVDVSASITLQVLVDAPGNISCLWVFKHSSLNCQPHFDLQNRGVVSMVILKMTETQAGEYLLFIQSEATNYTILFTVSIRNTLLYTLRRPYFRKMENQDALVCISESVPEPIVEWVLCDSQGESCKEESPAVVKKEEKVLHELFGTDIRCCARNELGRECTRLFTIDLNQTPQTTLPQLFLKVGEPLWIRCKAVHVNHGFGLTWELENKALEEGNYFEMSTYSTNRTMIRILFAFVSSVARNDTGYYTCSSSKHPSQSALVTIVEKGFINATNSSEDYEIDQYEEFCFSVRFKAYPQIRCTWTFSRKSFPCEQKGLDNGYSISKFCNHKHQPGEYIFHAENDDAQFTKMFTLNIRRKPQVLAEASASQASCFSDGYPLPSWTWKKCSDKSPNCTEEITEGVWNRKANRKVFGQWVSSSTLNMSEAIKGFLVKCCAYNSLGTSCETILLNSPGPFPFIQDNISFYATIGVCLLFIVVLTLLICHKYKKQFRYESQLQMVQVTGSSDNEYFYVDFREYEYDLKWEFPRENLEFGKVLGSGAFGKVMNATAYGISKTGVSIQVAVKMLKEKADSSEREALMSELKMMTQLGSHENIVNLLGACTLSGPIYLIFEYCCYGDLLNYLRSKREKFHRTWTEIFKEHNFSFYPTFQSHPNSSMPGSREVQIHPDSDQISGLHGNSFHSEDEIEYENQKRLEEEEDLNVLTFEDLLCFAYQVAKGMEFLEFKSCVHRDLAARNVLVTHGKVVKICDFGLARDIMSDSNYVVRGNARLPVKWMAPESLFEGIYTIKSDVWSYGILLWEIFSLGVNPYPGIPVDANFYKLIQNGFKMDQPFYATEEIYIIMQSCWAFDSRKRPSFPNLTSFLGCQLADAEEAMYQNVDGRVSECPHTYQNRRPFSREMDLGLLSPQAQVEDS

[7] = molecular target: Platelet-derived growth factor receptor alpha (Homo sapiens, UniProt P16234); experiment: Inhibition of PDGFRalpha (unknown origin) after 30 mins by HTRF assay
[8] = test system: HT-29; experiment: Potency index, ratio of foretinib IC50 to compound IC50 for human HT-29 cells; assay type: functional
[9] = test system: A549; experiment: Potency index, ratio of foretinib IC50 to compound IC50 for human A549 cells; assay type: functional
[10] = molecular target: Epidermal growth factor receptor (Homo sapiens, UniProt P00533); experiment: Inhibition of EGFR (unknown origin) after 30 mins by HTRF assay
[11] = Cytotoxicity against c-Met over-expressed human MKN45 cells assessed as cell growth inhibition after 72 hrs by MTT assay; conditions: MKN-45, 72 h
[12] = molecular target: Vascular endothelial growth factor receptor 2 (Homo sapiens, UniProt P35968); experiment: Inhibition of VEGFR2 (unknown origin) after 30 mins by HTRF assay
[13] = Cytotoxicity against c-Met over-expressed human H460 cells assessed as cell growth inhibition after 72 hrs by MTT assay; conditions: NCI-H460, 72 h
[14] = Cytotoxicity against c-Met over-expressed human A549 cells assessed as cell growth inhibition after 72 hrs by MTT assay; conditions: A549, 72 h
[15] = molecular target: Hepatocyte growth factor receptor (Homo sapiens, UniProt P08581); experiment: Inhibition of c-MET (unknown origin) using poly(Glu, Tyr)4:1 as substrate after 30 mins by HTRF assay
[16] = test system: MKN-45; experiment: Potency index, ratio of foretinib IC50 to compound IC50 for human MKN45 cells; assay type: functional

Sequence of Vascular endothelial growth factor receptor 2 (P35968 whole entry): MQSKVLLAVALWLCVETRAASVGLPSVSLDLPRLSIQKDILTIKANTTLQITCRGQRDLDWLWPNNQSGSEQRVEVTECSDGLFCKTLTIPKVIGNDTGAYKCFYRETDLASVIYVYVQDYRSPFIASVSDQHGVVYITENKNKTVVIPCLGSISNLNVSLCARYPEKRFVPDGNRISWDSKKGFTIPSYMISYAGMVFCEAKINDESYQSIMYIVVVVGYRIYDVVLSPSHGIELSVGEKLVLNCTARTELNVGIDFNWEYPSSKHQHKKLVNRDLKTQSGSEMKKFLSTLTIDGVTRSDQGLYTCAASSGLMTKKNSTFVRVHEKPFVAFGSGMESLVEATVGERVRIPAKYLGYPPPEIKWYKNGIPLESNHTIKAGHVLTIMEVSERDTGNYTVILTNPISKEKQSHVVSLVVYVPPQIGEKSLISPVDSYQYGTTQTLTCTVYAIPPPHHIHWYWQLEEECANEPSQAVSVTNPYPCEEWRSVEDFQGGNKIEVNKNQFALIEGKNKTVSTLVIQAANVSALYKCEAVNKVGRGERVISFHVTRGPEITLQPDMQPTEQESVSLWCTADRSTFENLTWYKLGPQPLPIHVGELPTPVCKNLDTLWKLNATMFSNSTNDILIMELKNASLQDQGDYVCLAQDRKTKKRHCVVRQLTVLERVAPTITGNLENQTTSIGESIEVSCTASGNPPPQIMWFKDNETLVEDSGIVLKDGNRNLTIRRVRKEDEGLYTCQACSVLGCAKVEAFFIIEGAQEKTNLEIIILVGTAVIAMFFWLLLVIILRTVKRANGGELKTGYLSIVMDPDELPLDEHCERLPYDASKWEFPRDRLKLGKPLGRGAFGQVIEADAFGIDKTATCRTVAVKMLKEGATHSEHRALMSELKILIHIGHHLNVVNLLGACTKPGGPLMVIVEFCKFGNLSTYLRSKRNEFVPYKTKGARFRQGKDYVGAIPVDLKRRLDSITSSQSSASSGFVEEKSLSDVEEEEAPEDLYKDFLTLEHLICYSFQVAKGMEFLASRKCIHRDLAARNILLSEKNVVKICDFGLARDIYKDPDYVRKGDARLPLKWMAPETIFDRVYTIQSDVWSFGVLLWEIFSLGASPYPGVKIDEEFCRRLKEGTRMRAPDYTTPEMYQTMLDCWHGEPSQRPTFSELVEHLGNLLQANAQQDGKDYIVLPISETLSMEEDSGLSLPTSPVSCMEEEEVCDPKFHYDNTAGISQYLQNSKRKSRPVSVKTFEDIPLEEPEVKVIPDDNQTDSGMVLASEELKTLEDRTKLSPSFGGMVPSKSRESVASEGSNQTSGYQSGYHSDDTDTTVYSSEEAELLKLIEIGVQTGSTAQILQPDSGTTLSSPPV
Sequence of Mast/stem cell growth factor receptor Kit (P10721 whole entry): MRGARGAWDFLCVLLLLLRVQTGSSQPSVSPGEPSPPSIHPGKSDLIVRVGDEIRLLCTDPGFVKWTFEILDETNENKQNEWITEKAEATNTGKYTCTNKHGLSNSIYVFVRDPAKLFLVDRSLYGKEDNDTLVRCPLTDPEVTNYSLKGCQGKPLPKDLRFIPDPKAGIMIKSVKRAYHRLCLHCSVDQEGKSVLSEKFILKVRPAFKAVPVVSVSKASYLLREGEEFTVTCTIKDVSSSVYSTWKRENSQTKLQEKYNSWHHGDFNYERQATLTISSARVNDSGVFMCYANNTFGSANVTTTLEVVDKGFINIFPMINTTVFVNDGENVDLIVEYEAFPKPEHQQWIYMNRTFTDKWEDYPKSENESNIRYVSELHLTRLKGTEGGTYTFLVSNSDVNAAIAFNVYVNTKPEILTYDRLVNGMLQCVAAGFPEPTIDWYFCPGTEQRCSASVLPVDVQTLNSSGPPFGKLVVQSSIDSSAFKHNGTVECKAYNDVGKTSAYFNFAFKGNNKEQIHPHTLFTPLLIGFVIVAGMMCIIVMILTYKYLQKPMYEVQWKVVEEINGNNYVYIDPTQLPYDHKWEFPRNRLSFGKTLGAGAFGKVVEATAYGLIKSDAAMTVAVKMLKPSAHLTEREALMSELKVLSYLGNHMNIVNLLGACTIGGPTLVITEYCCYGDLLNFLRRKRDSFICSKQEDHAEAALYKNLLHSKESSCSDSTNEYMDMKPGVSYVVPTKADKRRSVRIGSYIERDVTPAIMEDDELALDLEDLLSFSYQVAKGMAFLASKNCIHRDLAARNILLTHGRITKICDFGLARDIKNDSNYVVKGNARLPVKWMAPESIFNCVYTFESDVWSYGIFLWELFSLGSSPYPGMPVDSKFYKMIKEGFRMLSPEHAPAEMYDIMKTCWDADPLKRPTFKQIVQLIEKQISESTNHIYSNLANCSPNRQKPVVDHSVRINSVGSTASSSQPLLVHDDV
Sequence of Hepatocyte growth factor receptor (P08581 whole entry): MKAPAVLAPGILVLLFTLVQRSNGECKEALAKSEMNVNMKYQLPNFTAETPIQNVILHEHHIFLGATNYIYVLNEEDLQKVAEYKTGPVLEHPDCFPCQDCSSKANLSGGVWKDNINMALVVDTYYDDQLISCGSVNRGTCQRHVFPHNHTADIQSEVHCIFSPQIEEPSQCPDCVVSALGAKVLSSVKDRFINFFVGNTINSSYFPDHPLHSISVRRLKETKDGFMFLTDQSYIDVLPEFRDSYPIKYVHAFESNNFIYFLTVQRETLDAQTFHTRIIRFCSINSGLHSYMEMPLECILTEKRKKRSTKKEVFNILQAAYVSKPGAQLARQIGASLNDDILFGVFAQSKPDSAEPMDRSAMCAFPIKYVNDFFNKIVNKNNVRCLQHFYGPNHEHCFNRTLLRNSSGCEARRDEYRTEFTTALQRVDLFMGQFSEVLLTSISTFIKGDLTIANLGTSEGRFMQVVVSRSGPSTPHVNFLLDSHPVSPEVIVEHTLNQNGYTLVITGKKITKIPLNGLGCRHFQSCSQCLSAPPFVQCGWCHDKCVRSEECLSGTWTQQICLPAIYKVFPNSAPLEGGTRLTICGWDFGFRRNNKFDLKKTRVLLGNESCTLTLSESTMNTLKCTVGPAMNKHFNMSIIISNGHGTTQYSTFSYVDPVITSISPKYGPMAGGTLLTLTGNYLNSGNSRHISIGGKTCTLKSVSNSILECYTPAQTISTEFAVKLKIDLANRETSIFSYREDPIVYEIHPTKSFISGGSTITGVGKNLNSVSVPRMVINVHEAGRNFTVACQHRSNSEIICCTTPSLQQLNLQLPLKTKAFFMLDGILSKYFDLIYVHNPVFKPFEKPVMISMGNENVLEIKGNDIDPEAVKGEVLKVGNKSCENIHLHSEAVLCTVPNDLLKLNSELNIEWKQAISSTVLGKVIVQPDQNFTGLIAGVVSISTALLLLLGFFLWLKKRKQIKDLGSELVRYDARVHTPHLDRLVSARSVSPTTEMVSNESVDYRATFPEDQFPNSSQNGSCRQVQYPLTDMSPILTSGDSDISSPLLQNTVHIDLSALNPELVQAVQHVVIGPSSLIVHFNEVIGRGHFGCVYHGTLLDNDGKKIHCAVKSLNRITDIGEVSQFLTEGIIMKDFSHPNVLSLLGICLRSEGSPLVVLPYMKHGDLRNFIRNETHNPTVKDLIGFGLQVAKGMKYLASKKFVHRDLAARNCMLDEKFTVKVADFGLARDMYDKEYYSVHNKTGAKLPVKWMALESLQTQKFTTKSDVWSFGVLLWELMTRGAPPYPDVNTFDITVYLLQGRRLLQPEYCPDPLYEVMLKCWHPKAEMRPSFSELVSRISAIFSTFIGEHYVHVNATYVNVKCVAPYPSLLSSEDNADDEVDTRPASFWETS
Sequence of Macrophage-stimulating protein receptor (Q04912 25-304 limits assumed): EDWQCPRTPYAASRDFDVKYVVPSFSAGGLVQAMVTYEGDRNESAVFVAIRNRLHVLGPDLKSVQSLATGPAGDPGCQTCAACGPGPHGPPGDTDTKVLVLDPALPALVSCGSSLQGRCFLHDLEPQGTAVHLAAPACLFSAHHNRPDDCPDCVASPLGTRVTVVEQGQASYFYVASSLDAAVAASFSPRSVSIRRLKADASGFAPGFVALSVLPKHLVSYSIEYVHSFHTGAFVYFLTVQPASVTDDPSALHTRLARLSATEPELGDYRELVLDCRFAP
Sequence of Macrophage-stimulating protein receptor (Q04912 310-1400 limits assumed): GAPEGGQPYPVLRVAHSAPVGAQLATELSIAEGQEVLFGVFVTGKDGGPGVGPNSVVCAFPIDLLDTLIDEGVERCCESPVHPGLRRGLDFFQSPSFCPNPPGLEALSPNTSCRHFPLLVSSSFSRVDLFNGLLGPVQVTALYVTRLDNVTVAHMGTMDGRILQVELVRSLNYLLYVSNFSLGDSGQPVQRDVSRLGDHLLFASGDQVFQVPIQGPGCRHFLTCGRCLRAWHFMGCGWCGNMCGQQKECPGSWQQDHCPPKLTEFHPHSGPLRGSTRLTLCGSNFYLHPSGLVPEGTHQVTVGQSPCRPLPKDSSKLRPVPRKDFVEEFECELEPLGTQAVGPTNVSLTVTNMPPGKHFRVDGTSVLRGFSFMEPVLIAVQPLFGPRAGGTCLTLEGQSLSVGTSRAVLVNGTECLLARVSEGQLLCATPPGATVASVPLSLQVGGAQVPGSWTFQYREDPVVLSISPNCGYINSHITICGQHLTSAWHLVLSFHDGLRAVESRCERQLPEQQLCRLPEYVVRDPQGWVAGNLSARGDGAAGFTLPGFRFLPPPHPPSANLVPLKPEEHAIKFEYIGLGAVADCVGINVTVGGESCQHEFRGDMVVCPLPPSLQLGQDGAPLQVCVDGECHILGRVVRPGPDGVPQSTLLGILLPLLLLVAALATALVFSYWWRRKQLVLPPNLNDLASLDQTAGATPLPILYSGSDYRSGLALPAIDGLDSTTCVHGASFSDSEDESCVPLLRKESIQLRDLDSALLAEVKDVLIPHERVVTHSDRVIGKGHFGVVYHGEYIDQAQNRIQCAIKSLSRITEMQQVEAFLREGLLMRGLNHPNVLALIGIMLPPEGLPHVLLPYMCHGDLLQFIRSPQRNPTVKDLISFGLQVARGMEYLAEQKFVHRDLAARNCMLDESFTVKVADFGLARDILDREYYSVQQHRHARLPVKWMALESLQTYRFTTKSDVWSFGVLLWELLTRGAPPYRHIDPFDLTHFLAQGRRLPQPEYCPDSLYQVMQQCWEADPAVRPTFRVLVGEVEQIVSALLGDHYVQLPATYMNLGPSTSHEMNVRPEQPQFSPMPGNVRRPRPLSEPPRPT

| Compound | IC50 [4] [nM] | IC50 [11] [nM] | IC50 [13] [nM] | IC50 [14] [nM] | other results |
| --- | --- | --- | --- | --- | --- |
| COc1cc2c(Oc3ccc(NC(=O)c4cn(-c5ccccc5Cl)nn4)cc3F)ccnc2cc1OCCCN1CCCCC1 |  |  |  |  | Ratio IC50 [1]: 53 |
| COc1cc2c(Oc3ccc(NC(=O)c4nn(-c5ccccc5F)c(=O)n4C)cc3F)ccnc2cc1OCCCN1CCN(C)CC1 | 80 | 30 | 140 | 110 | Ratio IC50 [2]: 1.1 - 2.3; IC50 [3]: 3.38 nM; IC50 [5]: 141 nM; IC50 [6]: 8.19 nM; IC50 [7]: 95.2 nM; Ratio IC50 [8]: 1.1 - 2.3; Ratio IC50 [9]: 1.1 - 2.3; IC50 [10]: > 10000 nM; Ratio IC50 [1]: 306; IC50 [12]: 480 nM; IC50 [15]: 1.57 nM; Ratio IC50 [16]: 1.1 - 2.3 |
| COc1cc2c(Oc3ccc(NC(=O)c4nn(-c5ccccc5)c(=O)n4C)cc3F)ccnc2cc1OCCCN1CCN(C)CC1 | 650 | 560 | 620 | 460 |  |
| COc1cc2c(Oc3ccc(NC(=O)c4nn(-c5ccc(F)cc5)c(=O)n4C)cc3F)ccnc2cc1OCCCN1CCC(C)CC1 | 330 | 310 | 240 | 410 |  |
| COc1cc2c(Oc3ccc(NC(=O)c4nn(-c5ccc(Cl)cc5Cl)c(=O)n4C)cc3F)ccnc2cc1OCCCN1CCC(C)CC1 | 180 | 400 | 450 | 350 |  |
| COc1cc2c(Oc3ccc(NC(=O)c4nn(-c5c(C)cccc5C)c(=O)n4C)cc3F)ccnc2cc1OCCCN1CCN(C)CC1 | 1260 | 1660 | 2400 | 980 |  |
| CCn1c(C(=O)Nc2ccc(Oc3ccnc4cc(OCCCN5CCN(C)CC5)c(OC)cc34)c(F)c2)nn(-c2ccccc2OC(F)(F)F)c1=O | 150 | 57 | 250 | 200 |  |
| COc1cc2c(Oc3ccc(NC(=O)c4nn(-c5ccccc5)c(=O)n4C)cc3F)ccnc2cc1OCCCN1CCCC1 | 1450 | 1160 | 1300 | 990 |  |
| COc1cc2c(Oc3ccc(NC(=O)c4nn(-c5ccccc5)c(=O)n4C)cc3F)ccnc2cc1OCCCN1CCOCC1 | 1460 | 950 | 1700 | 700 |  |
| COc1cc2c(Oc3ccc(NC(=O)c4nn(-c5ccc(OC(F)F)cc5)c(=O)n4C)cc3F)ccnc2cc1OCCCN1CCCCC1 | 280 | 130 | 310 | 220 |  |
| COc1cc2c(Oc3ccc(NC(=O)c4nn(-c5c(C)cccc5C)c(=O)n4C)cc3F)ccnc2cc1OCCCN1CCCCC1 | 1700 | 1850 | 3010 | 2000 |  |
| COc1cc2c(Oc3ccc(N/C=C4\C(=O)N(c5ccccc5C(F)(F)F)N=C4C)cc3F)ccnc2cc1OCCCN1CCOCC1 |  |  |  |  | Ratio IC50 [1]: 172 |
| COc1cc2c(Oc3ccc(NC(=O)c4nn(-c5ccccc5OC(F)(F)F)c(=O)n4C)cc3F)ccnc2cc1OCCCN1CCN(C)CC1 | 180 | 20 | 200 | 90 |  |
| COc1cc2c(Oc3ccc(NC(=O)c4nn(-c5ccccc5Cl)c(=O)n4C)cc3F)ccnc2cc1OCCCN1CCN(C)CC1 | 170 | 88 | 340 | 160 |  |
| COc1cc2c(Oc3ccc(NC(=O)c4nn(-c5ccccc5Cl)c(=O)n4C)cc3F)ccnc2cc1OCCCN1CCC(C)CC1 | 150 | 350 | 200 | 240 |  |
| COc1cc2c(Oc3ccc(NC(=O)c4nn(-c5ccccc5OC(F)(F)F)c(=O)n4C)cc3F)ccnc2cc1OCCCN1CCCCC1 | 210 | 80 | 290 | 130 |  |
| COc1cc2c(Oc3ccc(NC(=O)c4nn(-c5ccccc5OC(F)(F)F)c(=O)n4C4CC4)cc3F)ccnc2cc1OCCCN1CCN(C)CC1 | 90 | 61 | 180 | 110 |  |
| COc1cc2c(Oc3ccc(NC(=O)c4nn(-c5ccccc5Cl)c(=O)n4C)cc3F)ccnc2cc1OCCCN1CCCCC1 | 180 | 220 | 300 | 190 |  |
| COc1cc2c(Oc3ccc(NC(=O)c4nn(-c5ccccc5OC(F)(F)F)c(=O)n4C4CC4)cc3F)ccnc2cc1OCCCN1CCC(C)CC1 | 110 | 100 | 240 | 120 |  |
| COc1cc2c(Oc3ccc(NC(=O)c4nn(-c5ccc(F)cc5)c(=O)n4C)cc3F)ccnc2cc1OCCCN1CCOCC1 | 1230 | 640 | 810 | 400 |  |
| COc1cc2c(Oc3ccc(NC(=O)c4nn(-c5cccc(F)c5)c(=O)n4C)cc3F)ccnc2cc1OCCCN1CCN(C)CC1 | 290 | 410 | 310 | 280 |  |
| COc1cc2c(Oc3ccc(NC(=O)c4nn(-c5ccccc5F)c(=O)n4C)cc3F)ccnc2cc1OCCCN1CCC(C)CC1 | 110 | 190 | 250 | 120 |  |
| COc1cc2c(Oc3ccc(NC(=O)c4nn(-c5ccc(F)cc5)c(=O)n4C)cc3F)ccnc2cc1OCCCN1CCCCC1 | 400 | 400 | 580 | 350 |  |
| COc1cc2c(Oc3ccc(NC(=O)c4nn(-c5ccc(Cl)cc5Cl)c(=O)n4C)cc3F)ccnc2cc1OCCCN1CCCCC1 | 340 | 290 | 380 | 320 |  |
| COc1cc2c(Oc3ccc(NC(=O)c4nn(-c5ccccc5F)c(=O)n4C)cc3F)ccnc2cc1OCCCN1CCCCC1 | 160 | 70 | 260 | 220 |  |
